# Source: ChEMBL document CHEMBL5356935, “Discovery of rigid biphenyl Plasmodium falciparum DHFR inhibitors using a fragment linking strategy” (RSC Med Chem, 2023)
# The source made the active and inactive calls. The calls are words filed in the database; no cut-off is given here.
# Columns and labels:
# [1] = target: T1, Dihydrofolate reductase (Homo sapiens) (UniProt P00374); experiment: Inhibition of human DHFR at 500 uM by UV-Vis spectrometry analysis
# T1 sequence (whole entry): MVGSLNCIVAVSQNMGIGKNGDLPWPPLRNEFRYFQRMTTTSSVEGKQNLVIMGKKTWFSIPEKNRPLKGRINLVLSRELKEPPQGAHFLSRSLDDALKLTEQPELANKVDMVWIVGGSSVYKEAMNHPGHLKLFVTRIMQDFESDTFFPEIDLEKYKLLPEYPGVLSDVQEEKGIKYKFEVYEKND
# [2] = target: Bifunctional dihydrofolate reductase-thymidylate synthase (Plasmodium falciparum K1) (UniProt P13922); experiment: Binding affinity to Plasmodium falciparum DHFR assessed as binding constant (koff) by surface plasmon resonance analysis
# [3] = target: Bifunctional dihydrofolate reductase-thymidylate synthase (Plasmodium falciparum K1) (UniProt P13922); experiment: Inhibition of wild type Plasmodium falciparum DHFR using DHF as substrate at 500 uM in presence of NADPH by UV-Vis spectrometry analysis relative to control
# [4] = target: Bifunctional dihydrofolate reductase-thymidylate synthase (Plasmodium falciparum K1) (UniProt P13922); experiment: Binding affinity to Plasmodium falciparum DHFR assessed as binding constant (kon) by surface plasmon resonance analysis
# Plasmodium falciparum [5] = experiment: Inhibition of Plasmodium falciparum DHFR N51I/C59R/S108N/I164L quadruple mutant using DHF as substrate at 500 uM in presence of NADPH by UV-Vis spectrometry analysis
# Plasmodium falciparum [6] = experiment: Inhibition of Plasmodium falciparum DHFR N51I/C59R/S108N/I164L quadruple mutant using DHF as substrate at 500 uM in presence of NADPH by UV-Vis spectrometry analysis relative to control
# [7] = target: Bifunctional dihydrofolate reductase-thymidylate synthase (Plasmodium falciparum K1) (UniProt P13922); experiment: Inhibition of wild type Plasmodium falciparum DHFR using DHF as substrate at 500 uM in presence of NADPH by UV-Vis spectrometry analysis
# Plasmodium falciparum [8] = experiment: Inhibition of Plasmodium falciparum DHFR N51I/C59R/S108N/I164L quadruple mutant assessed as fold change in inhibition in presence of 2,4-diamino-6-ethylpyrimidin-5-ol
# [9] = Distribution coefficient, log D of compound in n-octanol and saturated PBS at pH 7.4 at 100 uM incubated for 2 hrs under shaking condition by HPLC analysis; type: physicochemical
# Plasmodium falciparum [10] = experiment: Antiplasmodial activity against PYR-resistant Plasmodium falciparum V1/S encoding QM DHFR infected in human erythrocytes assessed as inhibition of parasite growth by [3H]-hypoxanthine incorporation assay; type: functional, organism-based; details: Erythrocyte
# Dihydrofolate reductase = target: T2, Dihydrofolate reductase (Homo sapiens, UniProt P00374); experiment: Inhibition of human DHFR using DHF as substrate assessed as inhibition constant in presence of NADPH by UV-Vis spectrometry analysis
# T2 sequence (P00374 whole entry): T1 sequence (whole entry)
# [11] = Kinetic solubility of the compound at pH 7.4 at 200 uM incubated for 2 hrs under shaking condition by HPLC analysis; type: physicochemical; details: buffer, read-out: Kinetic_solubility
# [12] = Metabolic stability in human liver microsomes assessed as intrinsic clearance measured upto 60 mins in presence of NADPH by LC-MS/MS analysis; type: ADME, Microsome; details: read-out: CLH
# Plasmodium falciparum [13] = experiment: Antiplasmodial activity against PYR-sensitive Plasmodium falciparum TM4/8.2 encoding WT DHFR infected in human erythrocytes assessed as inhibition of parasite growth by [3H]-hypoxanthine incorporation assay; type: functional, organism-based; details: TM4/8.2, Erythrocyte
# [14] = Kinetic solubility of the compound at pH 6.5 at 200 uM incubated for 2 hrs under shaking condition by HPLC analysis; type: physicochemical; details: buffer, read-out: Kinetic_solubility
# [15] = Kinetic solubility of the compound at pH 2.0 at 200 uM incubated for 2 hrs under shaking condition by HPLC analysis; type: physicochemical; details: buffer, read-out: Kinetic_solubility
# [16] = Cytotoxicity against African green monkey Vero cells assessed as cell growth inhibition incubated for 72 hrs by sulforhodamine B assay; type: toxicity, cell-based, Chlorocebus sabaeus
# [17] = Metabolic stability in rat liver microsomes assessed as intrinsic clearance measured upto 60 mins in presence of NADPH by LC-MS/MS analysis; type: ADME, Microsome; details: read-out: CLH
# [18] = Kinetic solubility of the compound at pH 4.5 at 200 uM incubated for 2 hrs under shaking condition by HPLC analysis; type: physicochemical; details: buffer, read-out: Kinetic_solubility
# [19] = target: Bifunctional dihydrofolate reductase-thymidylate synthase (Plasmodium falciparum K1, UniProt P13922); experiment: Inhibition of wild type Plasmodium falciparum DHFR using DHF as substrate assessed as inhibition constant in presence of NADPH by UV-Vis spectrometry analysis
# [20] = Inhibition of Plasmodium falciparum DHFR N51I/C59R/S108N/I164L quadruple mutant using DHF as substrate assessed as inhibition constant in presence of NADPH by UV-Vis spectrometry analysis
# Plasmodium falciparum [21] = experiment: Binding affinity to Plasmodium falciparum DHFR N51I/C59R/S108N/I164L quadruple mutant assessed as change in melting temperature in presence of NADPH by […] analysis
# [22] = target: Bifunctional dihydrofolate reductase-thymidylate synthase (Plasmodium falciparum K1) (UniProt P13922); experiment: Binding affinity to Plasmodium falciparum DHFR assessed as faster binding and release kinetics by surface plasmon resonance analysis
# [23] = Half life in human; type: ADME
# Plasmodium falciparum [24] = experiment: Binding affinity to Plasmodium falciparum apo-DHFR N51I/C59R/S108N/I164L quadruple mutant assessed as change in melting temperature by […] analysis
# Chain of Bifunctional dihydrofolate reductase-thymidylate synthase (Plasmodium falciparum K1) (P13922 whole entry, looked up): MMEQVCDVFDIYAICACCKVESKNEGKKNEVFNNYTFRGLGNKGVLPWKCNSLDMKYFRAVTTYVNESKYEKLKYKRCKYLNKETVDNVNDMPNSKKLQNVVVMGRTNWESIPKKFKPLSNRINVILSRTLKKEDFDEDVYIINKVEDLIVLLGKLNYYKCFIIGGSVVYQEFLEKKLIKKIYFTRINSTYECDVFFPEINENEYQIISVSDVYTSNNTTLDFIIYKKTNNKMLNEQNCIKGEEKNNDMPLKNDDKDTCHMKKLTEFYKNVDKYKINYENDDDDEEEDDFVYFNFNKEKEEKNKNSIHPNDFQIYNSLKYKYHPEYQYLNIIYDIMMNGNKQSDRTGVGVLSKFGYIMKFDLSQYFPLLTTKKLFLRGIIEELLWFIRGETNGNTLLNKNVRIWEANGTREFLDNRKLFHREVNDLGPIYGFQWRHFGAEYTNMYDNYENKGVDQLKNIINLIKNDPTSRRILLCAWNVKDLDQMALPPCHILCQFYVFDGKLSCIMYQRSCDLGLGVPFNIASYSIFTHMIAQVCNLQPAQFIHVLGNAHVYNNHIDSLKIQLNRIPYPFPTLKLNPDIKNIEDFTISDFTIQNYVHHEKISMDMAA
# Chain of Bifunctional dihydrofolate reductase-thymidylate synthase (P13922 whole entry): as the sequence (P13922 whole entry, looked up) above
Compound,inhibition [1],K [2],inhibition [3],K [4],inhibition (Plasmodium falciparum [6]),inhibition [7],IC50 (Plasmodium falciparum [10]),Ki (Dihydrofolate reductase),IC50 (Plasmodium falciparum [13]),IC50 at 72 h [16],Ki [20],also measured
COc1cccc(-c2ccc(C(=O)O)o2)c1,inactive,0.014 s⁻¹,12.7%,9.51 M⁻¹ s⁻¹,–,–,–,–,–,–,–,inhibition (Plasmodium falciparum [5]): inactive
O=C(O)c1ccc(-c2cnco2)cc1,inactive,0.013 s⁻¹,–,5.26 M⁻¹ s⁻¹,11.3%,inactive,–,–,–,–,–,fold change (FC) (Plasmodium falciparum [8]): 2.6
CCc1nc(N)nc(N)c1Cc1ccc(-c2ccc(C(=O)O)cc2)cc1.Cl,–,–,–,–,–,–,> 50000 nM,214 nM,11200 nM,> 50000 nM,61.1 nM,"logD at 2 h, 100 µM [9]: 0.332; solubility kinetic at 2 h, 200 µM [11]: 11.7 µM; microsomal CLint [12]: < 3 µL/min/mg; solubility kinetic at 2 h, 200 µM [14]: 11.4 µM; solubility kinetic at 2 h, 200 µM [15]: 176 µM; microsomal CLint [17]: < 3 µL/min/mg; solubility kinetic at 2 h, 200 µM [18]: 8.8 µM; Ki [19]: 1.59 nM"
O=C(O)c1ccccc1-c1ccco1,inactive,0.012 s⁻¹,6.5%,40 M⁻¹ s⁻¹,7.7%,–,–,–,–,–,–,–
O=C(O)c1cccc(-c2ccccc2)n1,inactive,0.013 s⁻¹,–,9.99 M⁻¹ s⁻¹,–,inactive,–,–,–,–,–,inhibition (Plasmodium falciparum [5]): inactive
CCc1nc(N)nc(N)c1Cc1cccc(-c2cccc(C(=O)OC)c2)c1,–,–,–,–,–,–,40000 nM,19.4 nM,4950 nM,21700 nM,0.58 nM,"logD at 2 h, 100 µM [9]: 3.2; Ki [19]: 0.21 nM"
Cc1ccc(-c2ccc(C(=O)O)cc2)o1,inactive,0.019 s⁻¹,27.4%,25.4 M⁻¹ s⁻¹,23.1%,–,–,–,–,–,–,ΔTm (Plasmodium falciparum [21]): -2.3 °C
O=C(O)c1ccc(-n2cccc2)cc1,inactive,0.008 s⁻¹,8%,14.6 M⁻¹ s⁻¹,19.4%,–,–,–,–,–,–,–
O=C(O)c1cccnc1-c1ccccc1,inactive,–,–,–,–,inactive,–,–,–,–,–,Activity [22]: Active; inhibition (Plasmodium falciparum [5]): inactive
COc1cc(Cc2cnc(N)nc2N)cc(OC)c1OC [TRIMETHOPRIM],–,–,–,–,–,–,–,–,–,–,49.1 nM,–
O=C(O)c1ccc(-c2cccnc2)cc1,inactive,0.001 s⁻¹,8.5%,4.18 M⁻¹ s⁻¹,2.4%,–,–,–,–,–,–,–
CCc1nc(N)nc(N)c1Cc1cccc(-c2ccc(C(=O)O)cc2)c1.Cl.Cl,–,–,–,–,–,–,> 50000 nM,22 nM,8550 nM,> 50000 nM,3.3 nM,"solubility kinetic at 2 h, 200 µM [11]: 30.8 µM; solubility kinetic at 2 h, 200 µM [14]: 19.2 µM; solubility kinetic at 2 h, 200 µM [15]: 188 µM; solubility kinetic at 2 h, 200 µM [18]: 19.2 µM; Ki [19]: 0.48 nM"
CCc1nc(N)nc(N)c1OCCCOc1ccccc1CCC(=O)O,–,–,–,–,–,–,56 nM,17.4 nM,5 nM,> 100000 nM,0.54 nM,"logD at 2 h, 100 µM [9]: -0.095; half-life [23]: < 20 h; solubility kinetic at 2 h, 200 µM [11]: 201 µM; microsomal CLint [12]: < 3 µL/min/mg; solubility kinetic at 2 h, 200 µM [14]: 204 µM; solubility kinetic at 2 h, 200 µM [15]: 207 µM; microsomal CLint [17]: < 3 µL/min/mg; solubility kinetic at 2 h, 200 µM [18]: 200 µM"
O=C(O)c1ccc(-c2ccncc2)cc1,inactive,0.001 s⁻¹,2.93%,16.4 M⁻¹ s⁻¹,10.1%,–,–,–,–,–,–,–
CCc1nc(N)nc(N)c1Cc1ccc(-c2ccc(C(=O)OC)cc2)cc1.Cl,–,–,–,–,–,–,> 25000 nM,423 nM,8150 nM,> 25000 nM,41.7 nM,"logD at 2 h, 100 µM [9]: 3.49; solubility kinetic at 2 h, 200 µM [11]: < 4 µM; microsomal CLint [12]: 459 µL/min/mg; solubility kinetic at 2 h, 200 µM [14]: < 4 µM; solubility kinetic at 2 h, 200 µM [15]: 154 µM; microsomal CLint [17]: 764 µL/min/mg; solubility kinetic at 2 h, 200 µM [18]: 132 µM; Ki [19]: 1.06 nM"
O=C(O)c1ccc(-c2ccc(O)cc2)cc1,inactive,0.011 s⁻¹,21.1%,14.8 M⁻¹ s⁻¹,24.9%,–,–,–,–,–,–,–
O=C(O)c1ccc(-c2ccccc2)cn1,inactive,0.037 s⁻¹,–,24.5 M⁻¹ s⁻¹,7%,inactive,–,–,–,–,–,ΔTm (Plasmodium falciparum [24]): -1.2 °C
CCc1nc(N)nc(N)c1Cc1cccc(-c2ccc(C(=O)OC)cc2)c1,–,–,–,–,–,–,> 50000 nM,16.6 nM,34100 nM,> 50000 nM,1.04 nM,"logD at 2 h, 100 µM [9]: 3.24; Ki [19]: 0.25 nM"
CCc1nc(N)nc(N)c1Cc1cccc(-c2cccc(C(=O)O)c2)c1,–,–,–,–,–,–,35000 nM,108 nM,4140 nM,> 50000 nM,0.81 nM,Ki [19]: 0.23 nM
CCc1nc(N)nc(N)c1Cc1ccc(-c2cccc(C(=O)O)c2)cc1.Cl,–,–,–,–,–,–,29700 nM,147 nM,770 nM,> 50000 nM,1.96 nM,"solubility kinetic at 2 h, 200 µM [11]: 29.9 µM; microsomal CLint [12]: 4.92 µL/min/mg; solubility kinetic at 2 h, 200 µM [14]: 15.7 µM; solubility kinetic at 2 h, 200 µM [15]: 192 µM; microsomal CLint [17]: < 3 µL/min/mg; solubility kinetic at 2 h, 200 µM [18]: 11.4 µM; Ki [19]: 0.29 nM"
Cc1oc(-c2ccccc2)cc1C(=O)O,inactive,0.014 s⁻¹,–,6.06 M⁻¹ s⁻¹,–,inactive,–,–,–,–,–,inhibition (Plasmodium falciparum [5]): inactive
O=C(O)c1ccc(-c2ccccc2F)o1,inactive,0.001 s⁻¹,–,7.61 M⁻¹ s⁻¹,2.6%,inactive,–,–,–,–,–,ΔTm (Plasmodium falciparum [24]): -1.8 °C
COc1ccccc1-c1ccc(C(=O)O)cc1,inactive,–,14.6%,–,24%,–,–,–,–,–,–,Activity [22]: Active; fold change (FC) (Plasmodium falciparum [8]): 2.7
O=C(O)c1cccc(-c2ccncc2)c1,inactive,–,–,6.41 M⁻¹ s⁻¹,19.5%,inactive,–,–,–,–,–,ΔTm (Plasmodium falciparum [21]): 0.8 °C
COc1cccc(-c2ccc(C(=O)O)cc2)c1,inactive,–,37.8%,–,45.8%,–,–,–,–,–,–,Activity [22]: Active; fold change (FC) (Plasmodium falciparum [8]): 2
O=C(O)c1cccc(-c2cccnc2)c1,inactive,0.002 s⁻¹,–,16.3 M⁻¹ s⁻¹,3.89%,inactive,–,–,–,–,–,–
O=C(O)c1ccccc1-c1ccncc1,inactive,–,–,–,–,inactive,–,–,–,–,–,Activity [22]: Active; inhibition (Plasmodium falciparum [5]): inactive
CCc1nc(N)nc(N)c1Cc1ccc(-c2cccc(C(=O)OC)c2)cc1.Cl,–,–,–,–,–,–,34500 nM,140 nM,720 nM,19300 nM,2.11 nM,"logD at 2 h, 100 µM [9]: 3.37; solubility kinetic at 2 h, 200 µM [11]: 8.1 µM; microsomal CLint [12]: 625 µL/min/mg; solubility kinetic at 2 h, 200 µM [14]: 8.8 µM; solubility kinetic at 2 h, 200 µM [15]: 186 µM; microsomal CLint [17]: 100 µL/min/mg; solubility kinetic at 2 h, 200 µM [18]: 183 µM; Ki [19]: 0.29 nM"
O=C(O)c1ccnc(-c2ccccc2)c1,inactive,0.01 s⁻¹,–,3.55 M⁻¹ s⁻¹,–,inactive,–,–,–,–,–,inhibition (Plasmodium falciparum [5]): inactive
